Values after ≈ are worked out from the molar mass of the structure shown. Like-named read-outs stand apart in the source and are kept apart here.

In experiment [1] the test system is M. bovis BCG. The experiment is described as follows: microbe, parasite or virus in culture. Type of experiment: cell-based, Mycobacterium bovis BCG.
Another experiment deals with M. smegmatis mc2155. The experiment is described as follows: MIC against M. smegmatis mc2155. The following applies: Mycolicibacterium smegmatis. Type of experiment: cell-based, Mycobacterium smegmatis.
The next experiment concerns Mtb H37Rv. The experiment is described as follows: MIC by broth microdilution against Mtb H37Rv. Type of experiment: cell-based, Mycobacterium tuberculosis. The following applies: incubation 5 days; for MIC50 Mtb H37Rv: first value of cell MIC50/MIC90.
The next experiment deals with Mab abscessus ATCC 19977. The experiment is described as follows: MIC against Mab abscessus ATCC 19977. Type of experiment: cell-based, Mycobacterium abscessus subsp. abscessus. The following applies: for MIC90: read-out: MIC90 Mab abscessus ATCC 19977; for MIC50 Mab abscessus ATCC 19977: 3 days.
Experiment [2] concerns Mab massiliense CCUG 48898-T. The experiment is described as follows: MIC against Mab massiliense CCUG 48898-T. Type of experiment: cell-based, Mycobacterium abscessus subsp. massiliense. As to conditions: for MIC50 Mab massiliense CCUG 48898-T: 3 days.
The test system of experiment [3] is Mab bolletii CCUG 50184-T. The experiment is described as follows: MIC against Mab bolletii CCUG 50184-T. As to conditions: for MIC50 Mab bolletii CCUG 50184-T: 3 days. Type of experiment: cell-based, Mycobacterium abscessus subsp. bolletii.
The subject of another experiment is Vero E6. The experiment is described as follows: Cytotoxicity in Vero E6 cells. Type of experiment: cell-based, African green monkey. As to conditions: 48 h, growth suppressed by 50% vs untreated. As for the experimental part:
(§1) To each well in a 96-well plate, 50,000 cells in 100 μL media were seeded. Vero E6 and HepG2 cells were incubated overnight in DMEM for cell adherence at 37°C and 5% CO2. The media was removed from the wells and 100 μL solution made up of fresh DMEM media (99 μL) and the test compound (1 μL from a DMSO stock solution that was […] more concentrated than the final concentration in the well) was then added to each well. DMSO content of each well was consistently kept at 0.5 %v/v. Treated plates were incubated for 48 h (5% CO2, 37°C), after which 10 μL of Celltitre 96 Aqueous One Solution was added to each well, without removal of media, and incubated for a further 3 h. Subsequently, absorbance readings were taken at 490 nm on a Tecan GENios Microplate Reader.
(§2) Cell viability was determined from the expression: Cellviability(%)={[Absorbance(cells+cpd)−Absorbance(cpd)]/[Absorbance(cells+vc)−Absorbance(vc)]}×100% where Absorbance (cells + cpd) = absorbance of wells containing cells and test compound in vehicle (media +0.5% DMSO); Absorbance (cpd) = absorbance of wells containing test compound in vehicle without cells (compound control); Absorbance (cells + vc) = absorbance of wells containing cells in vehicle (vc) only (untreated cells); Absorbance (vc) = absorbance of wells containing vehicle without cells (vehicle control). The percentage viability readings were plotted against log(concentration) on GraphPad Prism (Version 7.0, San Diego, CA) to give a sigmoidal curve, from which IC50, defined as the concentration of the compound that reduced cell viability by 50%, was obtained. At least 3 separate determinations were carried out.

Another experiment relates to HepG2. The experiment is described as follows: Cytotoxicity in HepG2 cells. Type of experiment: cell-based, human. The following applies: 48 h, growth suppressed by 50% vs untreated. As for the experimental part: as §1, §2
In experiment [4] the test system is M. bovis BCG. Type of experiment: cell-based, Mycobacterium bovis BCG.
In experiment [5] the test system is M. bovis BCG. Type of experiment: cell-based, Mycobacterium bovis BCG. The source holds these as a separate data set.
[6] abbreviates: 7H9 medium (first value of cell).
Where [7] appears, read: CA-MHB medium (second value of cell).

For `COc1ccc(CCN(C)CCCC(C#N)(CCCCCCCN=[N+]=[N-])c2ccc(OC)c(OC)c2)cc1OC` (centres unmarked) [AZ-2], the MIC90 against M. bovis BCG [1] (Mycobacterium tuberculosis variant bovis BCG, BCG, M. bovis BCG, broth dilution, growth reduced by 90% vs untreated) came out at 27 µM (≈ 14.9 µg/mL); with M. bovis BCG [1] (Mycobacterium tuberculosis variant bovis BCG, BCG, read-out: M. bovis BCG MIC90 (Table S4)), 27 µM (≈ 14.9 µg/mL); in the experiment on M. smegmatis mc2155 (MC2155, 24 h, incubation 1 day, read-out: M. smegmatis mc2155 MIC90 (Table S4)) it was 58 µM (≈ 32 µg/mL); in the experiment on M. smegmatis mc2155 (MC2155, read-out: MIC90 M. smegmatis), 58 µM (≈ 32 µg/mL). The MIC50 worked out at 12 µM (≈ 6.62 µg/mL) in the experiment with M. bovis BCG [1] (Mycobacterium tuberculosis variant bovis BCG, BCG, read-out: M. bovis BCG MIC50 (Table S4)) and 38 µM (≈ 21 µg/mL) in the experiment on M. smegmatis mc2155 (MC2155, 24 h, incubation 1 day, read-out: M. smegmatis mc2155 MIC50 (Table S4)).

As for `COc1ccc(CCN(C)CCCC(C#N)(CCC2CCCCC2)c2ccc(OC)c(OC)c2)cc1OC` (centres unmarked) [PhA1], the MIC50 in the experiment on M. bovis BCG [1] turned out to be 12 µM (≈ 6.27 µg/mL). For the same compound, the “MIC50 BCG With Glycerol” value against M. bovis BCG [1] is 12 µM (≈ 6.27 µg/mL). In the experiment with M. bovis BCG [1], the “MIC50 BCG Without Glycerol” value turned out to be 21 µM (≈ 11 µg/mL). For the same compound, in the experiment with M. bovis BCG [1], the “MIC90 (Table S1)” value turned out to be 25 µM (≈ 13.1 µg/mL). In the experiment with Mtb H37Rv, the “MIC50 Mtb H37Rv” value was 19 µM (≈ 9.93 µg/mL). Moreover, the MIC90 is 43 µM (≈ 22.5 µg/mL) in the experiment with Mtb H37Rv (second value of cell MIC50/MIC90, read-out: MIC90 Mtb H37Rv); 115 µM (≈ 60.1 µg/mL) in the experiment with Mab abscessus ATCC 19977 (7H9 broth (first value)); 54 µM (≈ 28.2 µg/mL) with Mab abscessus ATCC 19977 (camH broth (second value)); 106 µM (≈ 55.4 µg/mL) in [2] (7H9 broth (first value)); 125 µM (≈ 65.3 µg/mL) in experiment [2] (camH broth (second value)); 109 µM (≈ 57 µg/mL) in experiment [3] (7H9 broth (first value)). This compound also showed an MIC90 in experiment [3] (camH broth (second value)) of 61 µM (≈ 31.9 µg/mL). In addition, the “MIC50 Mab abscessus ATCC 19977” value in the experiment with Mab abscessus ATCC 19977 (setting [6]) was 76 µM (≈ 39.7 µg/mL); with Mab abscessus ATCC 19977 (setting [7]), 25 µM (≈ 13.1 µg/mL). The “MIC50 Mab massiliense CCUG 48898-T” value in experiment [2] (setting [6]) amounted to 100 µM (≈ 52.3 µg/mL); in [2] (setting [7]), 15 µM (≈ 7.84 µg/mL). Also, the “MIC50 Mab bolletii CCUG 50184-T” value in experiment [3] (setting [6]) was 97 µM (≈ 50.7 µg/mL); in [3] (setting [7]), 22 µM (≈ 11.5 µg/mL). Also, the values for the IC50 with Vero E6 and with HepG2 were 51 µM and 34 µM, respectively. In addition, the “MBC99.9 (10^3-fold kill)” value in the experiment with M. bovis BCG [4] is listed as 4 x MIC90. Also, the “CFUs above the detection limit” value in the experiment on M. bovis BCG [5] is on record as 10–100 times.

`COc1ccc(CCN(C)CCCCCCCCCCC(C#N)(c2ccc(OC)c(OC)c2)C(C)C)cc1OC` (centres unmarked) [PhA9]: in the experiment on M. bovis BCG [1], the MIC50 worked out at 11 µM (≈ 6.08 µg/mL), the “MIC50 BCG With Glycerol” value amounted to 11 µM (≈ 6.08 µg/mL), the “MIC50 BCG Without Glycerol” value turned out to be 22 µM (≈ 12.2 µg/mL) and the MIC90 stood at 22 µM (≈ 12.2 µg/mL). Also, in the experiment on M. bovis BCG [1], the “MIC90 (Table S1)” value is reported as 22 µM (≈ 12.2 µg/mL) and the “MIC90 BCG” value was 12 µg/mL (≈ 21.7 µM). Moreover, the MIC90 in the experiment with Mab abscessus ATCC 19977 (7H9 broth (first value)) came out at 190 µM (≈ 105 µg/mL). The “MIC50 Mab abscessus ATCC 19977” value in the experiment with Mab abscessus ATCC 19977 (setting [6]) is on record as 74/– ^e uM. The MIC90 in experiment [2] (7H9 broth (first value)) is recorded as > 200 µM. For the same compound, in experiment [2] (setting [6]), the “MIC50 Mab massiliense CCUG 48898-T” value was 123/– ^e uM. The MIC90 in [3] (7H9 broth (first value)) turned out to be 200 µM (≈ 111 µg/mL). Also, in [3] (setting [6]), the “MIC50 Mab bolletii CCUG 50184-T” value is 103/– ^e uM. In the experiment on Vero E6, the half-inhibitory concentration (IC50) turned out to be 15 µM. In the experiment with HepG2, the IC50 was found to be 15 µM. In addition, the “MBC99.9 (10^3-fold kill)” value against M. bovis BCG [4] turned out to be 2 x MIC90.

In turn, `CCCCCCCCC(C#N)(CCCN(C)CCc1ccc(OC)c(OC)c1)c1ccc(Cl)c(Cl)c1` (centres unmarked) [PhA12] displayed an MIC50 with M. bovis BCG [1] of 16 µM (≈ 8.54 µg/mL). In the experiment on M. bovis BCG [1], the “MIC50 BCG Without Glycerol” value was determined as 35 µM (≈ 18.7 µg/mL). Further, the MIC90 was 29 µM (≈ 15.5 µg/mL) against M. bovis BCG [1]; > 250 µM with Mab abscessus ATCC 19977 (7H9 broth (first value)); > 250 µM in the experiment with Mab abscessus ATCC 19977 (camH broth (second value)); > 250 µM in experiment [2] (7H9 broth (first value)); > 250 µM in [2] (camH broth (second value)); > 250 µM in [3] (7H9 broth (first value)). The MIC90 in experiment [3] (camH broth (second value)) is > 250 µM. Also, the “MIC90 (Table S1)” value against M. bovis BCG [1] is on record as 29 µM (≈ 15.5 µg/mL). Moreover, the “MIC90 BCG” value with M. bovis BCG [1] was determined as 16 µg/mL (≈ 30 µM). Further, in the experiment on Mtb H37Rv, the “MIC50 Mtb H37Rv” value is 23/46 μM. Further, the “MIC90 Mtb H37Rv” value in the experiment with Mtb H37Rv is 23/46 μM. Besides, the “MIC50 Mab abscessus ATCC 19977” value against Mab abscessus ATCC 19977 (setting [6]) was > 250 µM; with Mab abscessus ATCC 19977 (setting [7]), 194 µM (≈ 104 µg/mL). Moreover, the entries for the “MIC50 Mab massiliense CCUG 48898-T” value in experiment [2] (setting [6]) and in experiment [2] (setting [7]) were > 250 µM and 31 µM (≈ 16.5 µg/mL), respectively. Besides, the “MIC50 Mab bolletii CCUG 50184-T” value in experiment [3] (setting [6]) is > 250 µM; in experiment [3] (setting [7]), 72 µM (≈ 38.4 µg/mL). For the same compound, the IC50 worked out at 69 µM in the experiment on Vero E6 and 51 µM in the experiment on HepG2. Besides, in the experiment with M. bovis BCG [4], the “MBC99.9 (10^3-fold kill)” value was 4 x MIC90.

These data come from publication PMC12281142, “A potent phenylalkylamine disrupts mycobacterial membrane bioenergetics and augments bactericidal activity of bedaquiline” (iScience, 2025).
